Results on two substances are retold here after patent US6538019B1, “Functional emulsions” (Japan as represented by Director of National Food Research …, priority 2000, dated 2003).

The conditions of data set [1]: cited from earlier work.
Data set [2] can be described thus: Stability of the emulsion (time to phase separation of E/O emulsion). It is filed as physicochemical. Conditions: concentration of the emulsifying agent 5%; ratio of triolein and ethanol 8:2. As to the method:
First, sunflower seed oil (having the triolein purity 90% or more, as produced by Nippon Lever B. V.) as a continuous phase, 95% ethanol as a dispersed phase, and polyglycerol oleic acid ester (MO750, HLB12.9) as an emulsifying agent (surfactant) were prepared.
Next, polyphenol was dissolved in ethanol. As the polyphenol to be used, catechin, anthocyanin, quercetin can be listed.
Thereafter, the ethanol, to which 1 wt % polyglycerol oleic acid ester (PG) was added, and triolein (sunflower seed oil) were stirred at 3000 rpm for ten minutes with a homogenizer (Polytron: PT3000), thereby attempting the production of an emulsion.
Furthermore, the possibility of using emulsifying agents other than polyglycerol oleic acid ester (PG) was examined. In Table 2, DAO750 indicates decaglycerol decaester, PO500 indicates hexaglycerol pentaester, PO310 indicates tetraglycerol pentaester, MO310 indicates tetraglycerol monoester, MO500 indicates hexaglycerol monoester, and MO750 indicates polyglycerol oleic acid ester.

The nature of data set [3]: Dispersion behavior by small-angle X-ray scattering method (SAXS). It is filed as physicochemical. From the text: Further, the dispersion behavior of the polyglycerol oleic acid ester (PG) was examined using a small-angle X-ray scattering method (SAXS). It turned out that the polyglycerol oleic acid ester (PG) in ethanol was a molecular assembly having the radius of inertia of about 7 Å and the polyglycerol oleic acid ester (PG) in triolein was a molecular assembly having the radius of inertia of about 90 Å. As a result, it can be said that the stability of emulsions can be achieved by increasing the ratio of triolein with respect to ethanol.

A short description of data set [4]: Stability of the emulsions examined by a turbidity method. It is filed as physicochemical. Conditions: addition amount of PG varied within 1 wt %-5 wt %. From the text:
Next, the addition amount of polyglycerol oleic acid ester (PG) was variously changed within the range of 1 wt %-5 wt % and the stability of the emulsions was examined by a turbidity method.

With anthocyanin, the “Solubility with respect to water” value in data set [1] is “slightly soluble in water”.
As for polyglycerol oleic acid ester [MO750], the “Stability of E/O emulsion by emulsifying agent” value in data set [2] is “+++ (The sample did not cause the phase separation until five months.)”. Also, the “Radius of inertia of molecular assembly” value in data set [3] (in ethanol) was “about 7 Å”; in data set [3] (in triolein), “about 90 Å”. Moreover, the “Change in emulsion stability” value in data set [4] is reported as “A conspicuous change in emulsion stability was not found”.
